Reference: patent US7968521B2, “Stable cystal of protected pseudouridine” (Yamasa Corporation, priority 2005, dated 2011)

Tests used:
[1] = Stability (1): storage in a sealed vessel at 60° C. and a relative humidity of 30%, percent remaining by HPLC; format: physicochemical; conditions: relative humidity 30%; for Percent remaining (%) Day 3 / Percent remaining (%) Day 14 / Percent remaining (%) Day 23: sealed vessel; for Percent remaining (%) Day 3: Day 3, HPLC; for Percent remaining (%) Day 14: Day 14, HPLC; for Percent remaining (%) Day 23: Day 23, HPLC
Protocol: (§1) The crystalline 5′-O-(4,4′-dimethoxytrityl)pseudouridine produced in Example 1 was maintained in a sealed vessel at 60° C. and a relative humidity of 30%. Thereafter, the percent remaining of the compound was determined through HPLC, and the value was compared with that of the same compound in amorphous form, which had been separately prepared, so as to evaluate stability.

[2] = Stability (2): storage in a desiccator at 25±2° C. and a relative humidity of 33%, 57% or 75%, percent remaining by HPLC; format: physicochemical; conditions: fourteen days; for Percent remaining (%) RH 33% / Percent remaining (%) RH 57% / Percent remaining (%) RH 75%: desiccator, HPLC
Protocol: as §1, with “desiccator” for “sealed vessel”, “25±2°” for “60°”, “33%, 57%, or 75%. Fourteen days after,” for “30%. Thereafter,”, “stability. […] At a relative humidity of 75%, the stability clearly varied between the two samples.” for “stability.”

COc1ccc(C(OC[C@H]2O[C@@H](c3c[nH]c(=O)[nH]c3=O)[C@H](O)[C@@H]2O)(c2ccccc2)c2ccc(OC)cc2)cc1 [Amorphous, 5′-O-(4,4′-dimethoxytrityl)pseudouridine, reference compound]
Percent remaining (%) Day 3 [1]: 97.8% | Percent remaining (%) Day 14 [1]: 88.6% | Percent remaining (%) Day 23 [1]: 62.1% | Percent remaining (%) RH 33% [2]: 98.0% | Percent remaining (%) RH 57% [2]: 96.7% | Percent remaining (%) RH 75% [2]: 0.1%

COc1ccc(C(OC[C@H]2O[C@@H](c3c[nH]c(=O)[nH]c3=O)[C@H](O)[C@@H]2O)(c2ccccc2)c2ccc(OC)cc2)cc1 [Crystalline, 5′-O-(4,4′-dimethoxytrityl)pseudouridine]
thermal stability compared with the compound of amorphous form [1]: higher thermal stability | Percent remaining (%) Day 3 [1]: 99.0% | Percent remaining (%) Day 14 [1]: 97.6% | Percent remaining (%) Day 23 [1]: 95.7% | Percent remaining (%) RH 33% [2]: 98.7% | Percent remaining (%) RH 57% [2]: 98.5% | Percent remaining (%) RH 75% [2]: 60.7% | stability against moisture compared with the amorphous form ([2]; relative humidity 33%, 57% or 75%): more stable against moisture
